Read-outs that look alike come from different tables or passages of the source.
How the values were obtained:
[1] = system: t-PA mRNA expression in human umbilical vein endothelial cells (HUVECs); experiment: In vitro dose response: t-PA mRNA (and protein) expression in HUVEC after 24 h; format: cell-based
Procedure: Human umbilical vein endothelial cells (HUVECs) were prepared by collagenase treatment of fresh umbilical cords (Jaffe, E. A., et al. J Clin Invest 52, 2745-2756 (1973)) obtained from the maternity ward of the Sahlgrenska University hospital, Gotheburg, Sweden. Cells were cultured in EGM-2 medium (Lonza, Basel, Switzerland) and all experiments were performed in passage 1 of subcultivation. Confluent HUVECs were exposed to 10 nM-10 μM of Vorinostat (Selleck Chemicals, Houston, Tex., USA) in complete medium for 24 h. After 24 h, cells and conditioned media were harvested.
Total RNA was prepared using RNeasy Mini RNA kit (Qiagen, Hilden, Germany) and genomic DNA was removed using RNase-free DNase I set (Qiagen). Levels of t-PA mRNA were analyzed with real-time RT-PCR, performed on an Applied Biosystems 7500 Fast Real-Time PCR System using cDNA and Taqman reagents obtained from Applied Biosystems (Foster City, Calif., USA). Hypoxanthine phosphoribosyl transferase (HPRT, Assay number Hs99999909_m1, Applied Biosystems) was used as endogenous internal standard.
Endothelial cells in culture are known to constitutively secrete the majority of synthesized t-PA making conditioned media a suitable source for quantification of t-PA protein. Conditioned medium from cell cultures was collected, centrifuged (10 000×g, 10 min, 4° C.) to remove cell debris, transferred to fresh tubes and stored at −70° C. Concentrations of t-PA antigen in conditioned media were determined using the commercially available TriniLize t-PA antigen ELISA (Trinity Biotech, Bray, Ireland) according to manufacturer's protocol.

[2] = system: high-risk patients with recent deep vein thrombosis or pulmonary embolus; experiment: Clinical outcome study for prevention of recurrent venous thromboembolic events; format: in vivo, human
Procedure: This study is performed in high-risk patients who have experienced a recent deep vein thrombosis or circulatory stable pulmonary embolus to investigate the preventive effect of Vorinostat treatment on the risk for recurrent venous thrombotic events. Patients with a cancer diagnosis who presents with a first episode of a proximal deep venous thrombosis without unstable pulmonary embolism will be included. The patients will receive conventional treatment (i.e warfarin for 3-6 months) and thereafter included in the study. Patients are randomized in a parallel study design to receive double-blind oral treatment with 10 mg Vorinostat or placebo daily, in addition to optimal conventional treatment. The event rate is monitored by Kaplan-Meyer statistics. The primary efficacy endpoint is the composite measure of either mortality, or recurrent deep venous thrombosis or pulmonary embolism. The study is event-driven to a total of 180 events in the placebo group. […] Thus, this study confirms the clinical efficacy and feasibility of using Vorinostat for secondary prevention of venous thromboembolism.
This study is performed in high-risk patients who have experienced a recent deep vein thrombosis or circulatory stable pulmonary embolus to investigate the preventive effect of VPA treatment on the risk for recurrent venous thrombotic events. Patients with a cancer diagnosis and low grade inflammation who present with a first episode of a proximal deep venous thrombosis without unstable pulmonary embolism are included. The patients receive conventional treatment (i.e warfarin for 3-6 months) and thereafter are included in the study. Patients are randomized in a parallel study design to receive double-blind oral treatment with 100 mg valproic acid or placebo twice daily, in addition to optimal conventional treatment. The event rate is monitored by Kaplan-Meyer statistics. The primary efficacy endpoint is the composite measure of either mortality, or recurrent deep venous thrombosis or pulmonary embolism. The study is event-driven to a total of 180 events in the placebo group. […] Thus, this study confirms the clinical efficacy and feasibility of using VPA for secondary prevention of venous thromboembolism.

E-selectin = experiment: Regulation of E-selectin expression in endothelial cells; format: cell-based; conditions: endothelial cell gene expression
[3] = cited from earlier work
[4] = system: local release of t-PA from the endothelium; experiment: Intermediate endpoint study: in vivo t-PA release in man (perfused-forearm model, Substance P); set-up: species or system human; conditions: for increase of total amount of t-PA released (AUC): patients with stable angina pectoris, 2 weeks, daily oral dose: Vorinostat 10 mg, Belinostat 65 mg, Givinostat 2 mg, Panobinostat 0.5 mg, PCI-24781 2 mg, JNJ-26481585 0.2 mg, Mocetinostat 2 mg, SB939 0.4 mg, CXD101 10 mg
Procedure: (§1) The study comprises 16 patients with stable angina pectoris. Patients are investigated before and after oral treatment with 10 mg Vorinostat (Zolinza®, Merck & Co., Inc, NJ, USA) daily for 2 weeks. The study has a randomized, cross-over design and t-PA release capacity is investigated before and after treatment, with each individual serving as his/her own control
The capacity for t-PA release is investigated in the perfused-forearm model that we have developed, which is the only method that permits a direct measurement of the local release of t-PA from the endothelium (Hrafnkelsdottir, T., et al. Lancet 352, 1597-1598 (1998), Wall, U., et al. Blood 91, 529-537 (1998)). Since t-PA has a rapid hepatic clearance, it is impossible to infer endothelial release rates from plasma levels obtained from standard venous samples. With the invasive model, however, net forearm t-PA release rates are calculated from arterio-venous concentration gradients of t-PA after correction for forearm plasma flow. Acute t-PA release responses are induced by intra-arterial infusions of Substance P (Bachem, Bubendorf, Switzerland), and the amount and protein secretion profile is used as a measure of t-PA release capacity.
as §1, with “pectoris and elevated serum levels of high-sensitivity C-reactive protein (hs-CRP) >3 mg/L.” for “pectoris.”, “100” for “10”, “valproic acid twice” for “Vorinostat (Zolinza®, Merck & Co., Inc, NJ, USA)”, “control.” for “control”
The capacity for t-PA release is investigated in the perfused-forearm model that we have developed, which is the only method that permit a direct measurement of the local release of t-PA from the endothelium (Hrafnkelsdottir, T., et al. Lancet 352, 1597-1598 (1998), Wall, U., et al. Blood 91, 529-537 (1998). Since t-PA has a rapid hepatic clearance, it is impossible to infer endothelial release rates from plasma levels obtained from standard venous samples.
With the invasive model, however, net forearm t-PA release rates are calculated from arterio-venous concentration gradients of t-PA after correction for forearm plasma flow. Acute t-PA release responses are induced by intra-arterial infusions of Substance P (Bachem, Bubendorf, Switzerland), and the amount and protein secretion profile is used as a measure of t-PA release capacity.

[5] = daily oral dose: Vorinostat 10 mg, Givinostat 2 mg, Panobinostat 0.5 mg, PCI-24781 2 mg, JNJ-26481585 0.2 mg, Mocetinostat 2 mg, SB939 0.4 mg, CXD101 10 mg, Belinostat example prints 10 mg Vorinostat
[6] = maximum plasma concentration when the MTD is administered to humans

Structure (SMILES)	concentration at which a significant increase of t-PA mRNA levels was seen [1] [nM]	concentration of maximal effect on t-PA expression [1]	increase of t-PA expression at maximal effect [1]	reduction of risk for recurrent venous thrombotic events, in addition to conventional therapy [2, 5]	regulation of E-selectin expression (E-selectin)	MTD ([3]; bidaily, oncology treatment or trials) [mg bidaily]	Cmax [3, 6] [nM]	Cmax (ng/ml) [3, 6] [ng/mL]	increase of total amount of t-PA released (AUC) [4]	concentration at which a significant increase of t-PA mRNA levels is seen ([1]; present-tense Examples 3-9) [nM]	concentration of maximal effect on t-PA expression ([1]; present-tense Examples 3-9)	increase of t-PA expression at maximal effect ([1]; present-tense Examples 3-9)	MTD ([3]; humans, literature)	MTD ([3]; once daily, in healthy volunteers) [mg once daily]	Cmax ([3]; in vivo) [nM]	Cmax (ng/ml) ([3]; in vivo) [ng/mL]	reduction of risk for recurrent venous thrombotic events, in addition to conventional therapy ([2]; cancer diagnosis and low grade inflammation, 100 mg valproic acid orally twice daily)	increase of total amount of t-PA released ([4]; stable angina pectoris and hs-CRP >3 mg/L, 100 mg valproic acid orally twice daily for 2 weeks)	MTD ([3]; once daily, oncology treatment or trials) [mg once daily]
O=C(/C=C/c1cccc(S(=O)(=O)Nc2ccccc2)c1)NO [Belinostat]	10	around 3 μM	approximately 10 times	approximately 30%	almost no effect	1000	4000	~1400	approximately 50%	–	–	–	–	–	–	–	–	–	–
Cc1nn(C)cc1CN1CCC(c2ccc(C(=O)Nc3ccccc3N)cc2)CC1 [CXD101]	–	–	–	approximately 30%	–	–	–	–	approximately 50%	10	around 3 μM	approximately 10 times	–	–	–	–	–	–	–
CCN(CC)Cc1ccc2cc(COC(=O)Nc3ccc(C(=O)NO)cc3)ccc2c1.Cl [Givinostat]	30	0.3 µM	10 times	approximately 30%	strongly suppresses expression	–	650	300	approximately 50%	10	around 0.3 μM	approximately 10 times	200 mg	200	–	–	–	–	–
Cn1cc(CNCC2CCN(c3ncc(C(=O)NO)cn3)CC2)c2ccccc21 [JNJ-26481585, N-hydroxy-2-(4-((((1-methyl-1H-indol-3-yl)methyl)amino)methyl)piperidin-1-yl)pyrimidine-5-carboxamide]	3	around 30 nM	approximately 6 times	approximately 30%	–	–	–	–	approximately 50%	1	around 30 nM	approximately 10 times	–	–	–	–	–	–	–
Nc1ccccc1NC(=O)c1ccc(CNc2nccc(-c3cccnc3)n2)cc1 [Mocetinostat]	100	around 3 μM	approximately 15 times	approximately 30%	strongly induces expression	–	–	–	approximately 50%	10	around 3 μM	approximately 10 times	–	–	500	200	–	–	–
CN(C)Cc1c(C(=O)NCCOc2ccc(C(=O)NO)cc2)oc2ccccc12 [PCI-24781, 3-(dimethylaminomethyl)-N-[2-[4-(hydroxycarbamoyl)phenoxy]ethyl]-1-benzofuran-2-carboxamide]	100	around 1 μM	approximately 6 times	approximately 30%	–	–	–	–	approximately 50%	1	around 0.3 μM	approximately 10 times	–	–	–	–	–	–	–
CCCC(CCC)C(=O)O [VPA, valproic acid]	–	–	–	–	almost no effect	–	–	–	–	–	–	–	–	–	–	–	approximately 30%	approximately 50%	–
O=C(CCCCCCC(=O)Nc1ccccc1)NO [Vorinostat]	50	around 3 μM	approximately 7 times	approximately 30%	–	–	1100	–	approximately 50%	–	–	–	200 mg b.i.d	–	–	300	–	–	400

From patent publication US20230094176A1, “COMPOUNDS AND METHODS FOR IMPROVING IMPAIRED ENDOGENOUS FIBRINOLYSIS USING HISTONE DEACETYLASE INHIBITORS” (Cereno Scientific AB, priority 2011, published 2023)
